Assay results taken from patent publication US20190119282A1, “IMIDAZOPYRIDAZINES USEFUL AS INHIBITORS OF THE PAR-2 SIGNALING PATHWAY” (Vertex Pharmaceuticals Incorporated, priority 2013, published 2019).
Marks after values point to notes of the source that are not given here.

Columns and labels:
TNBS-induced colitis = test: Mouse TNBS-induced colitis model; format: in vivo, BALB/c mice; details: mice
Procedure: (§1) Male Sprague Dawley rats and BALB/c mice were housed in groups in a temperature controlled room and were acclimatized in the animal facility for at least three days prior to use. Experiments were performed during the light phase of the cycle. Animals have food and water ad libitum.
Example 65: Mouse TNBS-Induced Colitis Model
Colitis was induced by intra-colonic administration of 1.5 mg of TNBS in 75 μl of 40% v/volume ethanol solution under isoflurane anesthesia at a depth of 4 cm from the anal verge. Mice were kept with their heads down for 30 additional seconds post administration to ensure distribution of TNBS. Disease activity scores were assessed for a period of 5 days starting prior to TNBS injection (baseline reading). […] Test compounds or vehicle (0.5% MC/0.1% SDS) were systemically administered at the indicated doses in a volume of 10 mL/kg each day for 5 days and starting 1 day before TNBS.
(§2) Data are expressed as the mean % effect. Statistical significance was assessed using t-test for comparison between naive and inflamed rats, and one-way ANOVA followed by post-hoc comparison test for overall drug effectiveness. A difference between groups is considered significant with a p value of <0.05. *, p<0.05; **, p<0.01; ***, p<0.001 vs. vehicle.

[1] = test system: tryptase-induced mechanical hypersensitivity; test: Rat tryptase-induced mechanical hypersensitivity model; format: in vivo, Sprague Dawley rats; details: given 30 minutes post tryptase challenge
Procedure: as §1
Example 64: Rat Tryptase-Induced Mechanical Hypersensitivity Model
Peripheral sensitization was induced by intra-dermal administration of 500 ng of tryptase in a volume of 10 ul PBS under isoflurane anesthesia. Rats were then placed on a wire mesh grid in separate compartments and allowed to acclimatize before testing. Mechanical hypersensitivity was assessed 30 min after tryptase injection using calibrated von Frey filaments applied perpendicular to the plantar surface of the affected paw using the up-and-down method. Test compounds or vehicle (0.5% MC/0.1% SDS) were systemically administered at doses indicated in a volume of 5 mL/kg 3-18 h before the tryptase challenge (Table 11) or 30 minutes post tryptase challenge (Table 12).
as §2

[2] = test system: Thrombin-stimulated Ca2+ response in HT-29 cells; test: Ca FLIPR TETRA assay, ANTAGONIST mode, stimulation with 1 U/mL Thrombin; format: cell-based, human; details: Homo sapiens; HT-29 cells, antagonist mode, stimulation with 1 U/mL Thrombin
Method in brief: (§3)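 Cells plated overnight at 37 °C, 5% CO2 in 1% FBS medium; dye loading 45 min at 37 °C then 15 min r.t.; compound added from DMSO/HBSS dilution; first read for intrinsic Ca2+ activation; 30 min r.t. incubation; antagonist read after addition of the fixed activator (8 μM SLIGKV, 1 U/mL thrombin, 3.1 U/mL trypsin or 0.6 μM UTP).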

[3] = In vivo rat pharmacokinetics (intravenous and oral); details: plasma
Method in brief: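 Rats dosed by tail-vein bolus at 0.5–1 mg/kg in NMP-based solutions, or by oral gavage at 1–600 mg/kg as solution, suspension or spray-dried dispersion. Jugular blood in K3EDTA gave plasma or citrate-diluted whole blood; LC-MS/MS quantification, non-compartmental PK analysis.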

[4] = target: T1, PAR2 (HT-29 cells, trypsin activation) (Homo sapiens, UniProt P55085); test: Ca FLIPR TETRA assay, ANTAGONIST mode, stimulation with 3.1 U/mL trypsin; format: cell-based; details: HT-29 cells, antagonist mode, stimulation with 3.1 U/mL trypsin
T1 construct: host or cells: HT-29 cells
T1 sequence (P55085 26-397): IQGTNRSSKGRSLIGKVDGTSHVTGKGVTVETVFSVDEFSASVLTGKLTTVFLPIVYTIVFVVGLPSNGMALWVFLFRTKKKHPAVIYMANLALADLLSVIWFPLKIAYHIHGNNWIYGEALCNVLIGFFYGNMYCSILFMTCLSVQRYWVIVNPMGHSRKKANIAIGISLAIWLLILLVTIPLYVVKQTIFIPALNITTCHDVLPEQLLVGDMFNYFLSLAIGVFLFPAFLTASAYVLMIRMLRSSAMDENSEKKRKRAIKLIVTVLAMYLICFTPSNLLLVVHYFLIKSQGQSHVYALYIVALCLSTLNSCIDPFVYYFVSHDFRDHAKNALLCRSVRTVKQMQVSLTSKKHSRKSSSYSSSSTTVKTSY
Method in brief: as §3

[5] = test system: UTP-stimulated Ca2+ response in HT-29 cells; test: Ca FLIPR TETRA assay, ANTAGONIST mode, stimulation with 0.6 μM UTP; format: cell-based, human; details: Homo sapiens; HT-29 cells, antagonist mode, stimulation with 0.6 μM UTP
Method in brief: as §3

In the case of `Cc1nc(C(=O)N2CCN(C(=O)c3cn4nc(-c5ccc(F)cc5)cc(C(C)(C)C)c4n3)C(C)(C)C2)n[nH]1` [Compound I-343, (8-(tert-butyl)-6-(4-fluorophenyl)imidazo[1,2-b]pyridazin-2-yl)(2,2-dimethyl-4-(5-methyl-1H-1,2,4-triazole-3-carbonyl)piperazin-1-yl)methanone], the “% improvement in Disease activity scores” value (TNBS-induced colitis; dose 15 mg/kg each day for 5 days starting 1 day before TNBS) is reported as 24%, the “% improvement in Disease activity scores” value (TNBS-induced colitis; dose 50 mg/kg each day for 5 days starting 1 day before TNBS) is reported as 33* % and the “% improvement in Disease activity scores” value (TNBS-induced colitis; dose 150 mg/kg each day for 5 days starting 1 day before TNBS) is reported as 62*** %. For the same molecule, the “% inhibition of an established tryptase-induced nociception” value (“% inhibition” below) ([1]; dose 3 mg/kg) was 12%, the “% inhibition” value ([1]; dose 10 mg/kg) was 23% and the “% inhibition” value ([1]; dose 30 mg/kg) was 49* %. It also gave an IC50 [2] of 1110 nM, a clearance ([3]; intravenous 0.5 to 1 mg/kg, read-out: Clp) of 3.39 mL/min/kg and a Vd ([3]; intravenous, read-out: Vss) of 1.65 L/kg. For the same molecule, the bioavailability ([3]; oral by gavage) was 62%, the half-life ([3]; read-out: T ½ (converted)) was 7.03 h and the IC50 [4] was 0.8 nM. The IC50 [5] was 1030 nM.
